The values that follow come from ChEMBL document CHEMBL1146304, “Alpha-methyltryptamine sulfonamide derivatives as novel glucocorticoid receptor ligands” (Bioorg Med Chem Lett, 2007).

The target in experiment [1] is T1, Progesterone receptor (Homo sapiens, UniProt P06401).
T1 sequence (P06401 whole entry): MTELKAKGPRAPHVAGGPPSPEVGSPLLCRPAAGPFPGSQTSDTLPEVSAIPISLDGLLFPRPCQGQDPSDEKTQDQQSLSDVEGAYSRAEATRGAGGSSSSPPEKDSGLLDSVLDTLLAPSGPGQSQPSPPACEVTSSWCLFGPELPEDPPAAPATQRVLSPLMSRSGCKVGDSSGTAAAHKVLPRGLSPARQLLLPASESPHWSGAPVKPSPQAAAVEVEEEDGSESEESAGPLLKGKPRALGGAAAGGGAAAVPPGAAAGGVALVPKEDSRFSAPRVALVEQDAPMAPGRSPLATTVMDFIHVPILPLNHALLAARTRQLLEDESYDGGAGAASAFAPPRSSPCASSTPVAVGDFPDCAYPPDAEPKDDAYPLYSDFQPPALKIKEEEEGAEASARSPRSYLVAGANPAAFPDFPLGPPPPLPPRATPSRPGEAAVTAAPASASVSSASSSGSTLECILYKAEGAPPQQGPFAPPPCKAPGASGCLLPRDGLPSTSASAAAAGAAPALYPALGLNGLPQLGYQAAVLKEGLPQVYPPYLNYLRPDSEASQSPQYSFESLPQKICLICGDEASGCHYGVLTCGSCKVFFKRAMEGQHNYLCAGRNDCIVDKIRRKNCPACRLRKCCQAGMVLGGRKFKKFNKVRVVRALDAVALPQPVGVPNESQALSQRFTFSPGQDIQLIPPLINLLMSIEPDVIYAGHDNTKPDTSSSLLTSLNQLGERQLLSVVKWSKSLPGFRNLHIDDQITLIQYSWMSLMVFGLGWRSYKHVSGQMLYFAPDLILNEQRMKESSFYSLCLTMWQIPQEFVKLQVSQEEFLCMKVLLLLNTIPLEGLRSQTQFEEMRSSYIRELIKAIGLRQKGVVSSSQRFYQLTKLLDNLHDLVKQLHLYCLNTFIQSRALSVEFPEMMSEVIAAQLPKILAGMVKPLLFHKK
The experiment is described as follows: Inhibition of human PR.

The species entered for experiment [2] is Homo sapiens. The experiment in a line: Selectivity for human glucocorticoid receptor over human progesterone receptor.
Experiment [3] addresses T2, Mineralocorticoid receptor (Homo sapiens, UniProt P08235).
T2 sequence (P08235 whole entry): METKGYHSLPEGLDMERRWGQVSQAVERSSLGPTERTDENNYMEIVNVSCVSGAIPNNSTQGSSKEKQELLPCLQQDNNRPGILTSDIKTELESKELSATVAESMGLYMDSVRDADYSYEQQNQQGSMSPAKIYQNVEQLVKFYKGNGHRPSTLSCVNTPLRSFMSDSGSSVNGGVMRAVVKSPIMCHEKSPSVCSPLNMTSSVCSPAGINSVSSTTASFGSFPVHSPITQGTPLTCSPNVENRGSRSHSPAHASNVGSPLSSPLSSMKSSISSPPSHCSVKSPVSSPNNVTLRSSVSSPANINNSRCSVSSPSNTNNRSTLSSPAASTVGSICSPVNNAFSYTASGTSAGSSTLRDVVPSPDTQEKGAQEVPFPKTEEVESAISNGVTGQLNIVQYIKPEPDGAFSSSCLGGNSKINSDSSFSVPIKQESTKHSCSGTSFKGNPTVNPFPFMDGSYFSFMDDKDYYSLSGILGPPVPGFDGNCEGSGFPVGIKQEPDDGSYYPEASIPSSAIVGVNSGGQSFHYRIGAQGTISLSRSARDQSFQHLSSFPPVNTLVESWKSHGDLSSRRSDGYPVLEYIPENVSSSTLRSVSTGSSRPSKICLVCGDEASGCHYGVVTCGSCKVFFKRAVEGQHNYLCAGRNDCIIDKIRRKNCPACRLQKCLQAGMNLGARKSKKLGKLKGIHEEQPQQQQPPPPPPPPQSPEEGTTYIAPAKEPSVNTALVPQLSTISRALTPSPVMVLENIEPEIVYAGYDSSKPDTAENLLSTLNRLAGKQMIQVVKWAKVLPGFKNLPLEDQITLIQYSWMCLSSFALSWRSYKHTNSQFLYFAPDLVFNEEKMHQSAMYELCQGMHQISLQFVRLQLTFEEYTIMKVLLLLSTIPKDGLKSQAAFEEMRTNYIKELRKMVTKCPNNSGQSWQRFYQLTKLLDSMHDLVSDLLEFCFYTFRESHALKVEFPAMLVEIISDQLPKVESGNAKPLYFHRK
The experiment is described as follows: Inhibition of human MR.

Experiment [4] addresses T3, Glucocorticoid receptor (Homo sapiens, UniProt P04150).
T3 sequence (P04150 whole entry): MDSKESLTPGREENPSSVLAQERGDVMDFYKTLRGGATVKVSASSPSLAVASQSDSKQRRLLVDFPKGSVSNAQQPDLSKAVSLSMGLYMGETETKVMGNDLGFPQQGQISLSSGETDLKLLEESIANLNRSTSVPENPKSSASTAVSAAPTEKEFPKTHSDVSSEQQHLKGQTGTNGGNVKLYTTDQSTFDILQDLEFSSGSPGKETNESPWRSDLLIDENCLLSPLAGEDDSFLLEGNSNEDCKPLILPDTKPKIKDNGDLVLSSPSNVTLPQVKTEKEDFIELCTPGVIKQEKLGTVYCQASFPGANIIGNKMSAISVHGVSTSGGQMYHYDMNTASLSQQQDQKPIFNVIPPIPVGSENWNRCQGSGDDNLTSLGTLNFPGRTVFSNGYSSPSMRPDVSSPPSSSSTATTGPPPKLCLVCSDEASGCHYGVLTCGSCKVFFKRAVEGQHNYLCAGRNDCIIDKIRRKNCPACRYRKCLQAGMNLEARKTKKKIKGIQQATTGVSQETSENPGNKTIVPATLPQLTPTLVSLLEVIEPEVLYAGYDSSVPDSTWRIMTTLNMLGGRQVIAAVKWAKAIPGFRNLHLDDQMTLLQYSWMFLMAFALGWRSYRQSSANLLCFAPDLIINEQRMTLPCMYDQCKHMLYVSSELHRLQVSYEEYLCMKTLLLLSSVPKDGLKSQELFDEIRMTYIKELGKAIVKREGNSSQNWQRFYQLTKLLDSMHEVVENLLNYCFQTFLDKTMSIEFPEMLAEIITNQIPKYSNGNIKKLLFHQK

For experiment [5], the species on record is Homo sapiens. The experiment is described as follows: Selectivity for human glucocorticoid receptor over human mineralocorticoid receptor.

SMILES strings stand for the structures.

The term IC50 denotes the concentration that gives 50% inhibition. The low end stands for inhibition by little substance, the high end for a need for much substance. As to `CC(Cc1c[nH]c2ccccc12)NS(=O)(=O)c1c(Cl)cc(Cl)cc1Cl` (centres undefined), the 50% inhibitory concentration (IC50) is 570 nM in experiment [1], 130 nM in experiment [3] and 64 nM in experiment [4]. Moreover, in experiment [2], the Ratio IC50 was 8.
Take `Cc1cc(C)c(S(=O)(=O)NC(C)Cc2c[nH]c3ccccc23)c(C)c1` (centres undefined): the half-maximal inhibitory concentration (IC50) is 1400 nM in experiment [1], 290 nM in experiment [3] and 40 nM in experiment [4]. Moreover, the results for the Ratio IC50 in experiment [2] and in experiment [5] were 35 and 7, respectively.
